IC50 data for 35 compounds are collected here from US11780839B2, “Compounds for treating Huntington's disease” (PTC THERAPEUTICS, INC., priority 2018, dated 2023).

Some results are limits rather than exact numbers.

The term IC50 denotes the concentration needed to halve the response being measured. Read a high IC50 as lower potency.

This experiment relates to Endogenous Huntingtin Protein. Description: Endogenous Huntingtin Protein Assay (ELISA-based Meso Scale Discovery electrochemiluminescence). It is filed as cell-based. The settings on record: MSD electrochemiluminescence, Table 1. In short, it runs like this: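 Huntingtin was captured overnight at 4 °C on plates coated with 1 μg/mL MW1 (polyQ-expanded) or MAB2166 antibody and BSA-blocked. Detection used a rabbit monoclonal and then a SULFO-TAG goat anti-rabbit antibody (0.25 μg/mL, 1 h each, room temperature). Signal was read by electrochemiluminescence.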
Background: ELISA stands for enzyme-linked immunosorbent assay.
Consider `CN(c1ncc(-c2cc3cccnc3cc2O)nn1)C1CC(C)(C)NC(C)(C)C1` [Cpd 105, 6-{3-[methyl(2,2,6,6-tetramethylpiperidin-4-yl)amino]-1,2,4-triazin-6-yl}quinolin-7-ol], for which the IC50 lay within 100 to 500 nM.

In turn, `CC(C)NC1CCN(c2ncc(-c3ccc(-c4cn[nH]c4)cc3O)nn2)C1` (centres unmarked) [Cpd 148, 2-(3-{3-[(propan-2-yl)amino]pyrrolidin-1-yl}-1,2,4-triazin-6-yl)-5-(1H-pyrazol-4-yl)phenol] gave an IC50 of at most 100 nM.

The compound `Cc1csc(-c2ccc(-c3cnc(N(C)C4CC(C)(C)NC(C)(C)C4)nn3)c(O)c2)c1` [Cpd 54, 2-{3-[methyl(2,2,6,6-tetramethylpiperidin-4-yl)amino]-1,2,4-triazin-6-yl}-5-(4-methylthiophen-2-yl)phenol] returned an IC50 of over 500 nM.

Turning to `CC(C)(C)NC1CCN(c2ncc(-c3ccc(-c4cn[nH]c4)cc3O)nn2)CC1` [Cpd 206, 2-{3-[4-(tert-butylamino)piperidin-l-yl]-1,2,4-triazin-6-yl}-5-(1H-pyrazol-4-yl)phenol], the concentration for half-maximal inhibition (IC50) fell in the range of 1000 to 3000 nM.

On to `Oc1cc(-c2cn[nH]c2)ccc1-c1cnc(N2CCC(CNC3CC3)C2)nn1` (centres unmarked) [Cpd 392, 2-(3-{3-[(cyclopropylamino)methyl]pyrrolidin-1-yl}-1,2,4-triazin-6-yl)-5-(1H-pyrazol-4-yl)phenol], for which the concentration for half-maximal inhibition (IC50) is at most 100 nM.

As to `Cn1ncc(-c2ccc(-c3cnc(N4CCC(NC(C)(C)C)C4)nn3)c(O)c2)n1` (centres unmarked) [Cpd 210, 2-{3-[3-(tert-butylamino)pyrrolidin-1-yl]-1,2,4-triazin-6-yl}-5-(2-methyl-2H-1,2,3-triazol-4-yl)phenol], the IC50 was at most 100 nM.

Compound `CC(C)NC1CCN(c2ncc(-c3ccc(-c4ccn(C)c(=O)c4)cc3O)nn2)C1` (centres unmarked) [Cpd 227, 4-[3-hydroxy-4-(3-{3-[(propan-2-yl)amino]pyrrolidin-1-yl}-1,2,4-triazin-6-yl)phenyl]-1-methylpyridin-2(1H)-one] registered a half-inhibitory concentration (IC50) of at most 100 nM.

Consider `CC(C)NC1CCN(c2ncc(-c3ccc(-c4ncns4)cc3O)nn2)C1` (centres unmarked) [Cpd 237, 2-(3-{3-[(propan-2-yl)amino]pyrrolidin-1-yl}-1,2,4-triazin-6-yl)-5-(1,2,4-thiadiazol-5-yl)phenol], for which the half-maximal inhibitory concentration (IC50) lay in the range of 100 to 500 nM.

Consider `CN(c1ncc(-c2ccc(-c3ncc4[nH]ncc4n3)cc2O)nn1)C1CC(C)(C)NC(C)(C)C1` [Cpd 195, 2-{3-[methyl(2,2,6,6-tetramethylpiperidin-4-yl)amino]-1,2,4-triazin-6-yl}-5-(1H-pyrazolo[4,3-d]pyrimidin-5-yl)phenol], for which the concentration for half-maximal inhibition (IC50) was at most 100 nM.

For `CN(c1ncc(-c2ccc(-c3cn[nH]c3)cc2O)nn1)C1CCNCC1` [Cpd 19, 2-{3-[methyl(piperidin-4-yl)amino]-1,2,4-triazin-6-yl}-5-(1H-pyrazol-4-yl)phenol], the 50% inhibitory concentration (IC50) was at most 100 nM.

Turning to `Cc1cc(-c2ccc(-c3cnc(N(C)C4CC(C)(C)NC(C)(C)C4)nn3)c(O)c2)ccn1` [Cpd 9, 5-(2-methylpyridin-4-yl)-2-{3-[methyl(2,2,6,6-tetramethylpiperidin-4-yl)amino]-1,2,4-triazin-6-yl}phenol], the IC50 was at most 100 nM.

In the case of `CN(c1ncc(-c2ccc(-c3ccc4[nH]cnc4c3)cc2O)nn1)C1CC(C)(C)NC(C)(C)C1` [Cpd 131, 5-(1H-benzimidazol-5-yl)-2-{3-[methyl(2,2,6,6-tetramethylpiperidin-4-yl)amino]-1,2,4-triazin-6-yl}phenol], the IC50 is at most 100 nM.

Consider `Cc1cn(-c2ccc(-c3cnc(NC4CC(C)(C)NC(C)(C)C4)nn3)c(O)c2)cn1` [Cpd 274, 5-(4-methyl-1H-imidazol-1-yl)-2-{3-[(2,2,6,6-tetramethylpiperidin-4-yl)amino]-1,2,4-triazin-6-yl}phenol], for which the half-maximal inhibitory concentration (IC50) is at most 100 nM.

`CC(C)NC1CCN(c2ncc(-c3ccc(-c4cc(=O)n(C)cn4)cc3O)nn2)C1` (centres unmarked) [Cpd 234, 6-[3-hydroxy-4-(3-{3-[(propan-2-yl)amino]pyrrolidin-1-yl}-1,2,4-triazin-6-yl)phenyl]-3-methylpyrimidin-4(3H)-one]: the IC50 lay in the range of 100 to 500 nM.

`Oc1cc(-c2cn[nH]c2)ccc1-c1cnc(N2CCC3(CCNC3)CC2)nn1` [Cpd 181, 2-[3-(2,8-diazaspiro[4.5]decan-8-yl)-1,2,4-triazin-6-yl]-5-(1H-pyrazol-4-yl)phenol] yielded an IC50 of over 500 nM.

`CN(c1ncc(-c2ccc(-c3cccnn3)cc2O)nn1)C1CC(C)(C)NC(C)(C)C1` [Cpd 84, 2-{3-[methyl(2,2,6,6-tetramethylpiperidin-4-yl)amino]-1,2,4-triazin-6-yl}-5-(pyridazin-3-yl)phenol] gave a 50% inhibitory concentration (IC50) of at most 100 nM.

With `CC1(C)CC(Oc2ncc(-c3ccc(-n4nccn4)cc3O)nn2)CC(C)(C)N1` [Cpd 122, 2-{3-[(2,2,6,6-tetramethylpiperidin-4-yl)oxy]-1,2,4-triazin-6-yl}-5-(2H-1,2,3-triazol-2-yl)phenol], the 50% inhibitory concentration (IC50) fell in the range of 100 to 500 nM.

The compound `CN1CCC2CN(c3ncc(-c4ccc(-c5cn[nH]c5)cc4O)nn3)CC2C1` (centres unmarked) [Cpd 166, 2-[3-(5-methyloctahydro-2H-pyrrolo[3,4-c]pyridin-2-yl)-1,2,4-triazin-6-yl]-5-(1H-pyrazol-4-yl)phenol] had an IC50 of at most 100 nM.

`Oc1cc(-c2cn[nH]c2)ccc1-c1cnc(N2CC3(CCCNC3)C2)nn1` [Cpd 109, 2-[3-(2,6-diazaspiro[3.5]nonan-2-yl)-1,2,4-triazin-6-yl]-5-(1H-pyrazol-4-yl)phenol] displayed a half-maximal inhibitory concentration (IC50) of 100 to 500 nM.

`Cc1cn2nc(-c3ccc(-c4cnc(N(C)C5CC(C)(C)NC(C)(C)C5)nn4)c(O)c3)ccc2n1` [Cpd 142, 5-(2-methylimidazo[1,2-b]pyridazin-6-yl)-2-{3-[methyl(2,2,6,6-tetramethylpiperidin-4-yl)amino]-1,2,4-triazin-6-yl}phenol] registered an IC50 of at most 100 nM.

The compound `CN(c1ncc(-c2ccc(-c3c[nH]nc3F)cc2O)nn1)C1CC(C)(C)NC(C)(C)C1` [Cpd 12, 5-(3-fluoro-1H-pyrazol-4-yl)-2-{3-[methyl(2,2,6,6-tetramethylpiperidin-4-yl)amino]-1,2,4-triazin-6-yl}phenol] displayed an IC50 of at most 100 nM.

On to `CN(c1ncc(-c2ccc(-c3cc4cnn(C)c4cn3)cc2O)nn1)C1CC(C)(C)NC(C)(C)C1` [Cpd 222, 5-(1-methyl-1H-pyrazolo[3,4-c]pyridin-5-yl)-2-{3-[methyl(2,2,6,6-tetramethylpiperidin-4-yl)amino]-1,2,4-triazin-6-yl}phenol], for which the IC50 was at most 100 nM.

Compound `CC(C)NC1CCN(c2ncc(-c3ccc(-c4ccn(C)n4)cc3O)nn2)C1` (centres unmarked) [Cpd 213, 5-(1-methyl-1H-pyrazol-3-yl)-2-(3-{3-[(propan-2-yl)amino]pyrrolidin-1-yl}-1,2,4-triazin-6-yl)phenol] showed a 50% inhibitory concentration (IC50) of 1000 to 3000 nM.

`CN(c1ncc(-c2ccc(-c3ccn4nnnc4c3)cc2O)nn1)C1CC(C)(C)NC(C)(C)C1` [Cpd 155, 2-{3-[methyl(2,2,6,6-tetramethylpiperidin-4-yl)amino]-1,2,4-triazin-6-yl}-5-(tetrazolo[1,5-a]pyridin-7-yl)phenol]: the 50% inhibitory concentration (IC50) is at most 100 nM.

For the compound `CO[C@H]1[C@@H](N(C)c2ncc(-c3ccc(-c4cn[nH]c4)cc3O)nn2)CC(C)(C)NC1(C)C` [Cpd 293, 2-(3-{[(3S,4S)-3-methoxy-2,2,6,6-tetramethylpiperidin-4-yl](methyl)amino}-1,2,4-triazin-6-yl)-5-(1H-pyrazol-4-yl)phenol], the IC50 lay within 100 to 500 nM.

With `CN(c1cnc(-c2ccc(-c3ccc4c(cnn4C)n3)cc2O)nn1)C1CC(C)(C)NC(C)(C)C1` [Cpd 394, 5-(1-methyl-1H-pyrazolo[4,3-b]pyridin-5-yl)-2-{6-[methyl(2,2,6,6-tetramethylpiperidin-4-yl)amino]-1,2,4-triazin-3-yl}phenol], the IC50 was at most 100 nM.

As for `CN1CCO[C@@H]2CN(c3ncc(-c4ccc(-c5cn[nH]c5)cc4O)nn3)C[C@@H]21` [Cpd 311, 2-{3-[(4aS,7aR)-4-methylhexahydropyrrolo[3,4-b][1,4]oxazin-6(2H)-yl]-1,2,4-triazin-6-yl}-5-(1H-pyrazol-4-yl)phenol], the 50% inhibitory concentration (IC50) is 1000 to 3000 nM.

As to `Oc1cc(-c2cn[nH]c2)ccc1-c1cnc(N2CCC3(CCCNC3)C2)nn1` (centres unmarked) [Cpd 369, 2-[3-(2,7-diazaspiro[4.5]decan-2-yl)-1,2,4-triazin-6-yl]-5-(1H-pyrazol-4-yl)phenol], the IC50 is at most 100 nM.

Compound “2-(3-{[(3S,4S)-3-fluoro-2,2,6,6-tetramethylpiperidin-4-yl]amino}-1,2,4-triazin-6-yl)-5-(1H-imidazol-1-yl)phenol [Cpd 238]” gave a 50% inhibitory concentration (IC50) of at most 100 nM.

In the case of `CC(C)NC1CCN(c2ncc(-c3ccc(-c4ncco4)cc3O)nn2)C1` (stereo not drawn) [Cpd 308, 5-(1,3-oxazol-2-yl)-2-(3-{3-[(propan-2-yl)amino]pyrrolidin-l-yl}-1,2,4-triazin-6-yl)phenol], the half-maximal inhibitory concentration (IC50) lay in the range of 100 to 500 nM.

The compound `CN1CCC2(CC1)CN(c1ncc(-c3ccc(-n4nccn4)cc3O)nn1)C2` [Cpd 232, 2-[3-(7-methyl-2,7-diazaspiro[3.5]nonan-2-yl)-1,2,4-triazin-6-yl]-5-(2H-1,2,3-triazol-2-yl)phenol] displayed an IC50 of at most 100 nM.

Compound `CCC1CC(Oc2ncc(-c3ccc(-c4cn[nH]c4)cc3O)nn2)CC(CC)N1` [Cpd 120, 2-{3-[(2R,4s,6S)-2,6-diethylpiperidin-4-yl]oxy}-1,2,4-triazin-6-yl)-5-(1H-pyrazol-4-yl)phenol] registered a 50% inhibitory concentration (IC50) of 100 to 500 nM.

The compound `CN(c1ncc(-c2ccc(-c3cn(C)cn3)cc2O)nn1)C1CC(C)(C)NC(C)(C)C1` [Cpd 75, 5-(1-methyl-1H-imidazol-4-yl)-2-{3-[methyl(2,2,6,6-tetramethylpiperidin-4-yl)amino]-1,2,4-triazin-6-yl}phenol] showed a 50% inhibitory concentration (IC50) of over 500 nM.

In turn, `Oc1cc(-c2cn[nH]c2)ccc1-c1cnc(N2CCC(C3CCCN3)C2)nn1` (centres unmarked) [Cpd 387, 2-[3-([2,3’-bipyrrolidin]-l’-yl)-1,2,4-triazin-6-yl]-5-(1H-pyrazol-4-yl)phenol] gave a 50% inhibitory concentration (IC50) of at most 100 nM.

In turn, `Cn1cc(-c2ccc(-c3cnc(N4CCC(NC(C)(C)C)C4)nn3)c(O)c2)cn1` (stereo not drawn) [Cpd 202, 2-{3-[3-(tert-butylamino)pyrrolidin-l-yl]-1,2,4-triazin-6-yl}-5-(1-methyl-1H-pyrazol-4-yl)phenol] registered a concentration for half-maximal inhibition (IC50) of at most 100 nM.
